System: bacteria/yeast and mold
Test: Antimicrobial Preservation Effectiveness Test (micro robustness), double challenge test
Type: cell-based
Conditions: for microbial control: preservative in mouthwash formulation, separately or in combination
Description: The Antimicrobial Preservation Effectiveness Test is used to determine the antimicrobial preservation effectiveness of water-based product formulations by means of a double challenge test. Products are developed to withstand microbial challenges introduced by normal consumer use. The test is run on an aged sample (13 weeks, 40° C.). The test uses two pools of microorganisms: bacteria/yeast and mold. The product is challenged at a 1% level at day 0 and at day 7. Reduction of the inoculum is monitored over a 28 day period. The following are the acceptance criteria for mouth wash formulas. • Bacteria and Yeast must show a 99.9% reduction (3 logs) of the bacterial inoculum as determined by plate count on day 7 following each inoculation. No increase after day 7 of the second inoculation and for the remainder of the test within normal variation of the data. • Mold must show a 90.0% reduction (1 log) of the mold inoculum as determined by the plate count on day 14 following the second inoculation (day 21). No increase from day 14 to day 21 of the second inoculation of the test within normal variation of the data.

Structure (SMILES): OCc1ccccc1 [Benzyl alcohol, benzyl alcohol]
- microbial control: acceptable microbial control

Structure (SMILES): CCCCCCCC(=O)OCC(O)CO (stereo not shown) [Lexgard/gmcy, glycerol monocaprylate]
- microbial control: acceptable microbial control

Structure (SMILES): Cn1sccc1=O [MIT, methylisothiazolinone]
- antimicrobial efficacy (amount reduced to 0.001%): retaining antimicrobial efficacy
- microbial control: acceptable microbial control

Source: patent US20130230469A1, “Oral Care Product and Methods of Use and Manufacture Thereof” (COLGATE-PALMOLIVE COMPANY, priority 2010, published 2013)
